From US7544691B2, “Guanidine derivatives” (Actelion Pharmaceuticals, Ltd., priority 2004, dated 2009)

The compounds below were run against T1, NPFF1 receptor (Homo sapiens, UniProt Q9GZQ6) (assay: NPFF receptor binding test (displacement of 125I-Tyr1-NPFF from CHOSP10 cell membranes)). Details: membranes of CHOSP10 cells producing NPFF1 receptor; 0.2 nM 125I-Tyr1-NPFF; 90 minutes at room temperature.
T1 construct: expressed in transfected cells; host or cells: Chinese Hamster Ovary cells, CHOSP10 (membranes)
T1 sequence (Q9GZQ6 whole entry): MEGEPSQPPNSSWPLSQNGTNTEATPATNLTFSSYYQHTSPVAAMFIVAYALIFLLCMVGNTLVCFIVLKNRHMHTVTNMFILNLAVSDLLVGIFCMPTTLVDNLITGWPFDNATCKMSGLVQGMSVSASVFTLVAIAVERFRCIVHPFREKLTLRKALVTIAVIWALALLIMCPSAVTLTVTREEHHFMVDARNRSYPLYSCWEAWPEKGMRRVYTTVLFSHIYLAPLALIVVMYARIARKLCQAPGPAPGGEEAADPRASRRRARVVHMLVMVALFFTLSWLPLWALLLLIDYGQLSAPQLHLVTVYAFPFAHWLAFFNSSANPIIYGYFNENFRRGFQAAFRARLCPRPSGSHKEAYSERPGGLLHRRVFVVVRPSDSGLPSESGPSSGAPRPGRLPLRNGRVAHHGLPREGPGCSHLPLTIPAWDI
Experimental: Compounds of Formula I were examined in the following test for their affinity to the NPFF receptors: Hamster cells suitable for neuropeptide FF receptor-binding studies (Chinese Hamster Ovary cells, CHOSP10) which in each case produce the NPFF1 or NPFF2 receptor, were multiplied in standard cell-culture conditions. The cell-culture medium was sucked out and 5 ml of buffer A (5 mM Tris pH=7.4, 1 mM MgCl2) added per 17 cm Petri dish. The cells were scraped off the cell-culture plate and transferred into a 50 ml Falcon vessel. The cells were then centrifuged for 5 minutes at 450 g, resuspended in buffer A once again and mixed for 30 seconds on a Polytron Vortexer. After centrifugation at 30,000 g for 20 minutes the supernatant was discarded and the membrane pellet taken up in 500 μl buffer C (75 mM Tris pH=7.4, 25 mM MgCl2, 250 mM sucrose, 0.1 mM PMSF, 0.1 mM phenanthroline). The membrane-buffer mixture was then divided into aliquots and deep-frozen. The protein content of an aliquot was determined by the Lowry method. The binding test was carried out in a final volume of 250 μl. 100 μl membrane-buffer mixture corresponding to 35 μg protein content was mixed with 95 μl binding buffer (50 mM Tris pH 7.4, 60 mM NaCl, 0.1% protease-free BSA, 0.01% NaN3). After addition of 5 μl of a concentration of test substance per measurement point in each case, 0.2 nM ^125I-Tyr1-NPFF (NEN, NEX381) per measurement point was added in 50 μl. After 90 minutes' incubation at room temperature the samples were sucked out through a GF/C filter (Millipore ([…]60)) and the filter was washed with ice cold binding buffer with 3 times 300 μl (Packard Filtermate). After addition of 55 μl Microscint 40 (Packard 6013641) scintillation fluid the measurement points were quantified in the gamma counter (Packard, Top Count NXT). Non-specific binding was ascertained in the presence of 1 μM unmarked neuropeptide FF. Specific binding is defined as the difference between total and non-specific binding. IC50 values are defined as that concentration of the antagonist which displaces 50% of the ^125I-marked neuropeptide FF. This concentration is ascertained by linear regression analysis after logit/log-transformation of the binding values.

Structure (SMILES)	IC50 [µM]
Cc1nc(NC(=N)N)nc2c1CC(C)CC2 (racemic) [N-(4,6-dimethyl-5,6,7,8-tetrahydro-quinazolin-2-yl)-guanidine]	0.048
Cc1nc(NC(=N)N)nc2c1CCCCCC2 (racemic) [N-(4-methyl-5,6,7,8,9,10-hexahydro-cyclooctapyrimidin-2-yl)-guanidine]	0.06
Cc1nc(NC(=N)N)nc2c1CCCCC2 (racemic) [N-(4-methyl-6,7,8,9-tetrahydro-5H-cycloheptapyrimidin-2-yl)-guanidine]	0.054
Cc1nc(NC(=N)N)nc2c1CC(c1ccccc1)CC2 (racemic) [N-(4-methyl-6-phenyl-5,6,7,8-tetrahydro-quinazolin-2-yl)-guanidine]	0.016
Cc1nc(NC(=N)N)nc2c1CCCC2c1ccccc1 (racemic) [N-(4-methyl-8-phenyl-5,6,7,8-tetrahydro-quinazolin-2-yl)-guanidine]	0.016
CCC(C)C1CCCc2c(C)nc(NC(=N)N)nc21 (racemic) [N-(8-sec-butyl-4-methyl-5,6,7,8-tetrahydro-quinazolin-2-yl)-guanidine]	0.073
Cc1nc(NC(=N)N)nc2c1CCCC2C(C)(C)C (racemic) [N-(8-tert-butyl-4-methyl-5,6,7,8-tetrahydro-quinazolin-2-yl)-guanidine]	0.039
CCC(C)(C)C1CCc2nc(NC(=N)N)nc(C)c2C1 (racemic) [N-[6-(1,1-dimethyl-propyl)-4-methyl-5,6,7,8-tetrahydro-quinazolin-2-yl]-guanidine]	0.019

Now those with a lower IC50, led by results:

IC50 [µM]	Structure (SMILES)
0.008	Cc1nc(NC(=N)N)nc2c1CC(C(C)(C)C)CC2 (racemic) [N-(6-tert-butyl-4-methyl-5,6,7,8-tetrahydro-quinazolin-2-yl)-guanidine]
0.007	Cc1nc(NC(=N)N)nc2c1C(C)CCC2 (racemic) [N-(4,5-dimethyl-5,6,7,8-tetrahydro-quinazolin-2-yl)-guanidine]
0.004	Cc1nc(NC(=N)N)nc2c1CCCC2 (racemic) [N-(4-methyl-5,6,7,8-tetrahydro-quinazolin-2-yl)-guanidine]
0.002	Cc1nc(NC(=N)N)nc2c1CC(C(C)C)CC2 (racemic) [N-(6-isopropyl-4-methyl-5,6,7,8-tetrahydro-quinazolin-2-yl)-guanidine]
0.001	CCCC1CCc2nc(NC(=N)N)nc(C)c2C1 (racemic) [N-(4-methyl-6-propyl-5,6,7,8-tetrahydro-quinazolin-2-yl)-guanidine]
